Reference: PubChem BioAssay (NCI)
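In this assay, cells in 96-well plates receive the compound at five concentrations for 48 hours. Endpoints are linearly interpolated between the surrounding concentrations. GI50 = concentration required for 50% inhibition of growth. At the TGI there is no net growth.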

Key:
Experiment in all cases: NCI tumour cell line growth inhibition, 48 h
[1] = tested on: COLO 205 colon
[2] = tested on: DU-145 prostate
[3] = tested on: MALME-3M melanoma
[4] = tested on: MOLT-4 leukemia
[5] = tested on: PC-3 prostate
[6] = tested on: SK-MEL-2 melanoma
[7] = tested on: SK-MEL-5 melanoma
[8] = tested on: SN12C renal
[9] = tested on: NCI-H226 lung
[10] = tested on: A498 renal

Work on `COc1ccc2cc(C(=O)/C=C/c3ccco3)ccc2c1` yielded a GI50 [1] of 51.2 µM, a TGI [1] of over 100 µM and a GI50 [2] of 23.9 µM. It also gave a TGI [2] of 88.6 µM, a GI50 [3] of 31 µM and a TGI [3] of over 100 µM. It also gave a GI50 [4] of 41.7 µM, a TGI [4] of over 100 µM and a GI50 [5] of 47.4 µM. It also gave a TGI [5] of over 100 µM, a GI50 [6] of 21.6 µM and a TGI [6] of 59.1 µM. For the same compound, the GI50 [7] was 12.2 µM, the TGI [7] was 31.1 µM and the GI50 [8] was 31.3 µM. For the same compound, the TGI [8] was over 100 µM.
`CCN1C(=O)C(N=[N+]=[N-])(c2ccccc2)C(=O)c2ccccc21` (stereo unspecified) showed a TGI [1] of over 100 µM, a TGI [3] of over 100 µM and a TGI [4] of over 100 µM. It also gave a TGI [9] of over 100 µM, a TGI [6] of over 100 µM and a TGI [7] of over 100 µM. The TGI [8] was over 100 µM.
Compound `O=C1C2C3CCC(C2C(=O)N1CO)C1C2C(=O)N(CO)C(=O)C2C31` (stereo unspecified) has a TGI [10] of over 100 µM, a TGI [1] of over 59.6 µM and a TGI [3] of over 100 µM. The TGI [4] was 67.7 µM, the TGI [9] was over 100 µM and the TGI [6] was over 100 µM. For the same compound, the TGI [7] was 98.9 µM and the TGI [8] was over 69.2 µM.
`Cc1ccc(C)c(N2C(=O)C(=O)c3c(C)ccc(C)c32)c1` showed a TGI [1] of over 100 µM, a TGI [2] of over 100 µM and a TGI [3] of 96.5 µM. For the same compound, the TGI [4] was 48.8 µM, the TGI [9] was over 100 µM and the TGI [5] was over 100 µM. The TGI [6] was 68.4 µM, the TGI [7] was 41.2 µM and the TGI [8] was over 100 µM.
For `Cc1ccc(S(=O)(=O)NC(=O)C#CCOC2CCCCO2)cc1` (stereo unspecified), the TGI [10] was over 100 µM, the TGI [3] was over 100 µM and the TGI [4] was over 100 µM. The TGI [9] was over 100 µM, the TGI [6] was over 100 µM and the TGI [7] was over 100 µM. It also gave a TGI [8] of over 100 µM.
`O=C1C(Cl)=C(Nc2cccc(O)c2)C(=O)N1c1ccc(Cl)cc1Cl` showed a GI50 [1] of 28.2 µM, a TGI [1] of over 100 µM and a GI50 [2] of 23.1 µM. For the same compound, the TGI [2] was 90.5 µM, the GI50 [3] was 31.6 µM and the TGI [3] was 92 µM. The GI50 [4] was 7.32 µM, the TGI [4] was 33.1 µM and the GI50 [5] was 13.9 µM. It also gave a TGI [5] of 38.2 µM, a GI50 [6] of 35 µM and a TGI [6] of 72.5 µM. The GI50 [7] was 14.7 µM, the TGI [7] was 32.2 µM and the GI50 [8] was 17.1 µM. The TGI [8] was 35.9 µM.
Work on `CCOC(=O)/C(=C/c1ccc(Cl)cc1)N(CC)CC` yielded a TGI [10] of over 100 µM, a TGI [1] of over 100 µM and a TGI [3] of over 100 µM. For the same compound, the TGI [4] was over 100 µM, the TGI [9] was over 100 µM and the TGI [6] was over 100 µM. It also gave a TGI [7] of over 100 µM and a TGI [8] of over 100 µM.
`O=c1nc(-c2ccccc2)scc1-c1ccccc1` showed a TGI [1] of over 100 µM, a TGI [3] of over 100 µM and a TGI [4] of over 100 µM. The TGI [9] was over 100 µM, the TGI [6] was over 100 µM and the TGI [7] was over 100 µM. It also gave a TGI [8] of over 100 µM.
For `COc1cccc(N2C(=O)[C@H]3[C@H]4CC(C(C)(C)C)CC[C@H]4c4c([nH]c5ccccc45)[C@H]3C2=O)c1` (stereo partly specified), the TGI [1] was 32.2 µM, the TGI [3] was 47.4 µM and the TGI [4] was 25.1 µM. It also gave a TGI [9] of 40.3 µM, a TGI [6] of 40.3 µM and a TGI [7] of 35.6 µM. The TGI [8] was 26.5 µM.
`Cc1cc2c(=O)c3ccccc3oc2c(C#N)c1C` showed a TGI [10] of over 100 µM, a TGI [1] of over 100 µM and a TGI [2] of over 100 µM. For the same compound, the TGI [3] was over 100 µM, the TGI [4] was over 100 µM and the TGI [5] was over 100 µM. The TGI [7] was over 100 µM.
`CO[C@]12CCC(=O)N1C=Cc1c2[nH]c2ccccc12` was tested, and the TGI [10] was over 100 µM, the TGI [1] was over 100 µM and the TGI [3] was over 100 µM. For the same compound, the TGI [4] was over 100 µM, the TGI [9] was over 100 µM and the TGI [7] was over 100 µM.
`O=C(CC(=O)c1cccc([N+](=O)[O-])c1)C(=O)Nc1nc([N+](=O)[O-])cs1` showed a TGI [10] of over 100 µM, a TGI [1] of over 100 µM and a TGI [3] of over 100 µM. The TGI [4] was over 100 µM, the TGI [9] was over 100 µM and the TGI [6] was over 100 µM. It also gave a TGI [7] of over 100 µM and a TGI [8] of over 100 µM.
